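Each compound was tested at five concentrations against cells in 96-well plates for 48 hours. Abbreviation: GI50, concentration required for 50% inhibition of growth. TGI is the concentration that stops growth completely.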
Key:
Assay in all cases: DTP human tumour cell line panel, 48 h
EKVX NSCLC = tested on: EKVX NSCLC
KM12 colon = tested on: KM12 colon
SN12C renal = tested on: SN12C renal
SNB-75 CNS = tested on: SNB-75 CNS
MDA-MB-435 = tested on: MDA-MB-435
HS 578T breast = tested on: HS 578T breast
SNB-19 CNS = tested on: SNB-19 CNS
K-562 leukemia = tested on: K-562 leukemia
SK-MEL-5 melanoma = tested on: SK-MEL-5 melanoma
MCF7 breast = tested on: MCF7 breast
TK-10 renal = tested on: TK-10 renal
SK-MEL-28 melanoma = tested on: SK-MEL-28 melanoma
SW-620 colon = tested on: SW-620 colon
NCI-H460 lung = tested on: NCI-H460 lung
UACC-257 melanoma = tested on: UACC-257 melanoma
OVCAR-5 ovarian = tested on: OVCAR-5 ovarian
SR leukemia = tested on: SR leukemia
SK-OV-3 ovarian = tested on: SK-OV-3 ovarian
T-47D breast = tested on: T-47D breast
U251 CNS = tested on: U251 CNS
HOP-62 NSCLC = tested on: HOP-62 NSCLC
UO-31 renal = tested on: UO-31 renal
HOP-92 NSCLC = tested on: HOP-92 NSCLC
RXF 393 renal = tested on: RXF 393 renal
OVCAR-8 ovarian = tested on: OVCAR-8 ovarian
SF-295 CNS = tested on: SF-295 CNS
NCI-H522 lung = tested on: NCI-H522 lung
DU-145 prostate = tested on: DU-145 prostate
ACHN renal = tested on: ACHN renal
CAKI-1 renal = tested on: CAKI-1 renal
A549 NSCLC = tested on: A549 NSCLC
LOX IMVI melanoma = tested on: LOX IMVI melanoma
NCI-H226 lung = tested on: NCI-H226 lung
SF-268 CNS = tested on: SF-268 CNS
COLO 205 colon = tested on: COLO 205 colon
OVCAR-4 ovarian = tested on: OVCAR-4 ovarian
M14 melanoma = tested on: M14 melanoma
UACC-62 melanoma = tested on: UACC-62 melanoma
SK-MEL-2 melanoma = tested on: SK-MEL-2 melanoma
NCI-H23 lung = tested on: NCI-H23 lung
SF-539 CNS = tested on: SF-539 CNS
RPMI-8226 leukemia = tested on: RPMI-8226 leukemia
NCI/ADR-RES ovarian = tested on: NCI/ADR-RES ovarian
HCT-116 colon = tested on: HCT-116 colon
HCC-2998 colon = tested on: HCC-2998 colon
786-0 renal = tested on: 786-0 renal
MDA-MB-231 breast = tested on: MDA-MB-231 breast
PC-3 prostate = tested on: PC-3 prostate
HCT-15 colon = tested on: HCT-15 colon
IGROV1 ovarian = tested on: IGROV1 ovarian
MALME-3M melanoma = tested on: MALME-3M melanoma
BT-549 breast = tested on: BT-549 breast
HT29 colon = tested on: HT29 colon
OVCAR-3 ovarian = tested on: OVCAR-3 ovarian
CCRF-CEM leukemia = tested on: CCRF-CEM leukemia
HL-60(TB) leukemia = tested on: HL-60(TB) leukemia
MOLT-4 leukemia = tested on: MOLT-4 leukemia
A498 renal = tested on: A498 renal

COc1cc2cnc3c(c2c(OC)c1OC)Cc1cc2c(cc1-3)OCO2
GI50 (EKVX NSCLC): 7.54 µM
TGI (EKVX NSCLC): > 100 µM
GI50 (KM12 colon): 0.255 µM
TGI (KM12 colon): 0.874 µM
GI50 (SN12C renal): 0.602 µM
TGI (SN12C renal): > 100 µM
GI50 (SNB-75 CNS): > 100 µM
TGI (SNB-75 CNS): > 100 µM
GI50 (MDA-MB-435): 0.207 µM
TGI (MDA-MB-435): 0.446 µM
GI50 (HS 578T breast): 2.38 µM
TGI (HS 578T breast): > 50.7 µM
GI50 (SNB-19 CNS): > 100 µM
TGI (SNB-19 CNS): > 100 µM
GI50 (K-562 leukemia): 0.156 µM
TGI (K-562 leukemia): > 87.9 µM
GI50 (SK-MEL-5 melanoma): 0.682 µM
TGI (SK-MEL-5 melanoma): 13.3 µM
GI50 (MCF7 breast): 1.32 µM
TGI (MCF7 breast): > 24.8 µM
GI50 (TK-10 renal): 0.752 µM
TGI (TK-10 renal): 2.9 µM
GI50 (SK-MEL-28 melanoma): 42.6 µM
TGI (SK-MEL-28 melanoma): > 100 µM
GI50 (SW-620 colon): 1.35 µM
TGI (SW-620 colon): > 100 µM
GI50 (NCI-H460 lung): 1.39 µM
TGI (NCI-H460 lung): > 100 µM
GI50 (UACC-257 melanoma): 0.99 µM
TGI (UACC-257 melanoma): > 100 µM
GI50 (OVCAR-5 ovarian): > 40.8 µM
TGI (OVCAR-5 ovarian): > 100 µM
GI50 (SR leukemia): 0.0491 µM
TGI (SR leukemia): 0.305 µM
GI50 (SK-OV-3 ovarian): 69.3 µM
TGI (SK-OV-3 ovarian): > 100 µM
GI50 (T-47D breast): > 100 µM
TGI (T-47D breast): > 100 µM
GI50 (U251 CNS): 0.31 µM
TGI (U251 CNS): > 21.8 µM
GI50 (HOP-62 NSCLC): 0.234 µM
TGI (HOP-62 NSCLC): 10.9 µM
GI50 (UO-31 renal): 10.9 µM
TGI (UO-31 renal): > 100 µM
TGI (HOP-92 NSCLC): > 28.5 µM
GI50 (RXF 393 renal): 10.9 µM
TGI (RXF 393 renal): 47.9 µM
TGI (OVCAR-8 ovarian): > 29.4 µM
GI50 (SF-295 CNS): 0.591 µM
TGI (SF-295 CNS): > 32.8 µM
GI50 (NCI-H522 lung): 0.408 µM
TGI (NCI-H522 lung): 3.46 µM
GI50 (DU-145 prostate): > 36.1 µM
TGI (DU-145 prostate): > 100 µM
GI50 (ACHN renal): 0.243 µM
TGI (ACHN renal): > 29.1 µM
GI50 (CAKI-1 renal): 0.256 µM
TGI (CAKI-1 renal): 1.76 µM
GI50 (A549 NSCLC): 2.64 µM
TGI (A549 NSCLC): > 100 µM
GI50 (LOX IMVI melanoma): 0.0789 µM
TGI (LOX IMVI melanoma): > 100 µM
GI50 (NCI-H226 lung): 88.3 µM
TGI (NCI-H226 lung): > 100 µM
GI50 (SF-268 CNS): 2.74 µM
TGI (SF-268 CNS): > 100 µM
GI50 (COLO 205 colon): 0.743 µM
TGI (COLO 205 colon): > 100 µM
GI50 (OVCAR-4 ovarian): > 100 µM
TGI (OVCAR-4 ovarian): > 100 µM
GI50 (M14 melanoma): 0.55 µM
TGI (M14 melanoma): > 55.1 µM
GI50 (UACC-62 melanoma): 0.204 µM
TGI (UACC-62 melanoma): 11.2 µM
GI50 (SK-MEL-2 melanoma): 1.41 µM
TGI (SK-MEL-2 melanoma): > 65.1 µM
GI50 (NCI-H23 lung): 2.3 µM
TGI (NCI-H23 lung): > 100 µM
GI50 (SF-539 CNS): 0.869 µM
TGI (SF-539 CNS): 12 µM
GI50 (RPMI-8226 leukemia): 0.559 µM
TGI (RPMI-8226 leukemia): > 100 µM
GI50 (NCI/ADR-RES ovarian): 10.8 µM
TGI (NCI/ADR-RES ovarian): > 74.8 µM
GI50 (HCT-116 colon): 0.0694 µM
TGI (HCT-116 colon): > 100 µM
GI50 (HCC-2998 colon): > 100 µM
TGI (HCC-2998 colon): > 100 µM
GI50 (786-0 renal): 3.23 µM
TGI (786-0 renal): > 82.5 µM
GI50 (MDA-MB-231 breast): 0.71 µM
TGI (MDA-MB-231 breast): > 27.8 µM
GI50 (PC-3 prostate): 4.49 µM
TGI (PC-3 prostate): > 100 µM
GI50 (HCT-15 colon): 0.102 µM
TGI (HCT-15 colon): > 32.3 µM
GI50 (IGROV1 ovarian): 2.86 µM
TGI (IGROV1 ovarian): > 100 µM

c1ccc(-c2nnc(CCCCCCCCc3nnc(-c4ccccc4)o3)o2)cc1
TGI (EKVX NSCLC): > 100 µM
TGI (KM12 colon): > 100 µM
TGI (SN12C renal): > 100 µM
TGI (SNB-75 CNS): > 100 µM
TGI (MDA-MB-435): > 100 µM
TGI (SNB-19 CNS): > 100 µM
TGI (K-562 leukemia): > 100 µM
TGI (SK-MEL-5 melanoma): > 100 µM
TGI (MCF7 breast): > 100 µM
TGI (TK-10 renal): > 100 µM
TGI (SK-MEL-28 melanoma): > 100 µM
TGI (MALME-3M melanoma): > 100 µM
TGI (BT-549 breast): > 100 µM
TGI (SW-620 colon): > 100 µM
TGI (NCI-H460 lung): > 100 µM
TGI (UACC-257 melanoma): > 100 µM
TGI (HT29 colon): > 100 µM
TGI (OVCAR-5 ovarian): > 100 µM
TGI (SK-OV-3 ovarian): > 100 µM
TGI (U251 CNS): > 100 µM
TGI (HOP-62 NSCLC): > 100 µM
TGI (UO-31 renal): > 100 µM
TGI (HOP-92 NSCLC): > 100 µM
TGI (OVCAR-8 ovarian): > 100 µM
TGI (SF-295 CNS): > 100 µM
TGI (NCI-H522 lung): 61 µM
TGI (OVCAR-3 ovarian): > 100 µM
TGI (CCRF-CEM leukemia): > 100 µM
TGI (DU-145 prostate): > 100 µM
TGI (ACHN renal): > 100 µM
TGI (CAKI-1 renal): > 100 µM
TGI (A549 NSCLC): > 100 µM
TGI (LOX IMVI melanoma): > 100 µM
TGI (NCI-H226 lung): > 100 µM
TGI (SF-268 CNS): > 100 µM
TGI (COLO 205 colon): > 100 µM
TGI (HL-60(TB) leukemia): > 100 µM
TGI (MOLT-4 leukemia): > 100 µM
TGI (A498 renal): > 100 µM
TGI (OVCAR-4 ovarian): > 100 µM
TGI (M14 melanoma): > 100 µM
TGI (SK-MEL-2 melanoma): > 100 µM
TGI (NCI-H23 lung): > 100 µM
TGI (SF-539 CNS): > 100 µM
TGI (NCI/ADR-RES ovarian): > 100 µM
TGI (HCT-116 colon): > 100 µM
TGI (HCC-2998 colon): 91.6 µM
TGI (786-0 renal): > 100 µM
TGI (MDA-MB-231 breast): > 100 µM
TGI (PC-3 prostate): > 100 µM
TGI (HCT-15 colon): > 100 µM
TGI (IGROV1 ovarian): > 100 µM

From PubChem BioAssay (NCI)
